One test concerns the target TF/FVIIa (Homo sapiens, UniProt P08709). Nature of the test: TF/FVIIa inhibition (TF/FVIIa-IC50). The format is biochemical. The text has this:
Coagulation factor VIIa initiates the extrinsic part of the coagulation cascade after binding to tissue factor and contributes to the activation of factor X to give factor Xa. Inhibition of factor Vila thus prevents the formation of factor Xa and thus subsequent thrombin formation. The inhibition of factor Vila by the compounds according to the invention and the measurement of the anticoagulant and antithrombotic activity can be determined by conventional in-vitro or in-vivo methods. A conventional method for the measurement of the inhibition of factor VIIa is described, for example, by H. F. Ronning et al. in Thrombosis Research 1996, 84, 73-81.

For the next test, the target named is FXa (Homo sapiens, UniProt P00742). Put plainly: Factor Xa inhibition (FXa-IC50). The format is biochemical. The text has this: The inhibition of factor Xa by the compounds according to the invention and the measurement of the anticoagulant and antithrombotic activity can be determined by conventional in-vitro or in-vivo methods. A suitable method is described, for example, by J. Hauptmann et al. in Thrombosis and Haemostasis 1990, 63, 220-223.
Chain of FXa (P00742 235-488 limits assumed): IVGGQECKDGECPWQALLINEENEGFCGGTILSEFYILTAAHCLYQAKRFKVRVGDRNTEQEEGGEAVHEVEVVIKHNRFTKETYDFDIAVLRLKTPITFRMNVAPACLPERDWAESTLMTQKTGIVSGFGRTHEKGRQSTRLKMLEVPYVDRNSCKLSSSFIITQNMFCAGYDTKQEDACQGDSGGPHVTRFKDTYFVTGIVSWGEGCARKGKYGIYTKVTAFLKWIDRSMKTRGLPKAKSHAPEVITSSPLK
Chain of FXa (P00742 41-179 partner limits assumed): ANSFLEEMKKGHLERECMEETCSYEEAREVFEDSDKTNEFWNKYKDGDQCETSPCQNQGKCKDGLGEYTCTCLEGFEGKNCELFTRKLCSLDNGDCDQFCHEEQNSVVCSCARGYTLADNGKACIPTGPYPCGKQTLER
The inhibition of factor Xa can be measured, for example by the method of T. Hara et al. in Thromb. Haemostas. 1994, 71, 314-319.

Chain of TF/FVIIa (P08709 213-466 limits assumed): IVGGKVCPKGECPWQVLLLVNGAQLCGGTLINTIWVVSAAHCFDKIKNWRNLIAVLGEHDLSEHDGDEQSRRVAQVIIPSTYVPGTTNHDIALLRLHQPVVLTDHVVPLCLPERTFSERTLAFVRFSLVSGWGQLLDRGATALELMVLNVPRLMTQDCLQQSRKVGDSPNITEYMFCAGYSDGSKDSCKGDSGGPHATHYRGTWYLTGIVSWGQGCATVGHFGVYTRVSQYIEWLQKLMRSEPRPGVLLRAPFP
Chain of TF/FVIIa (P08709 61-212 partner limits assumed): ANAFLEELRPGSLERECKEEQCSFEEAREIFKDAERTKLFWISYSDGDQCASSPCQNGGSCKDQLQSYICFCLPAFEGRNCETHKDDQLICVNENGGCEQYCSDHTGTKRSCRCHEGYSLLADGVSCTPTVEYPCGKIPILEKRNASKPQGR
Chain of TF/FVIIa (P13726 33-295 partner): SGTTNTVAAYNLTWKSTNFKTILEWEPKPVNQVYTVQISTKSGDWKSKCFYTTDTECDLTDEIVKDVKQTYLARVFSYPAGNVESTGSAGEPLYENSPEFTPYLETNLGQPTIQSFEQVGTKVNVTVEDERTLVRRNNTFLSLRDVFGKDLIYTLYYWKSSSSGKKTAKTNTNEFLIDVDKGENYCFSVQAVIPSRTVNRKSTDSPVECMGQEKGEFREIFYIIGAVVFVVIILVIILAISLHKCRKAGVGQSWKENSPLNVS

As a reminder, the IC50 is the midpoint of a concentration-inhibition curve. Lower therefore signals greater potency in that assay. As for `Cc1cc(NC(=O)[C@@H](CC(C)C)NC(=O)c2ccc(Cl)s2)ccc1N1CCOCC1=O` [Compound 1A, (R)-2-[(5-chlorothiophene-2-carbonyl)amino]-N-[3-methyl-4-(3-oxomorpholin-4-yl)phenyl]-4-methylvaleramide], the IC50 was determined as 6.9 nM against TF/FVIIa and 7.3 nM on FXa.

For the compound `CC(C)C[C@@H](NC(=O)c1ccc(Cl)s1)C(=O)Nc1ccc(-n2ccncc2=O)cc1` [Compound 2A, (R)-2-[(5-chlorothiophene-2-carbonyl)amino]-N-[4-(2-oxo-2H-pyrazin-1-yl)phenyl]4-methylvaleramide], on FXa, half-maximal inhibition (IC50) required 39 nM. Same read-out and setting: as for `CC(C)C[C@@H](NC(=O)c1ccc(Cl)s1)C(=O)Nc1ccc(N2CCCCC2=N)cc1` [Compound 4A, (R)-2-[(5-chlorothiophene-2-carbonyl)amino]-N-[4-(2-iminopiperidin-1-yl)phenyl]-4-methylvaleramide], the figure is 25 nM; as for `CC(C)C[C@H](NC(=O)c1ccc(Cl)s1)C(=O)Nc1ccc(N2CCCCC2=N)cc1` [Compound 4B, (S)-2-[(5-chlorothiophene-2-carbonyl)amino]-N-[4-(2-iminopiperidin-1-yl)phenyl]-4-methylvaleramide], 260 nM.

The values are drawn from patent publication US20060052376A1, “Carboxamides” (Merck Patent GmbH, priority 2002, published 2006).
